SMILES strings stand for the structures.

This is an account of results in patent publication US9441016B2, “Complete genome sequence of the methanogen Methanobrevibacter ruminantium” (Pastoral Greenhouse Gas Research Ltd., priority 2009, dated 2016).

Assay [1] concerns M. ruminantium M1. Description: Effect of the lytic enzyme PeiR on M1 growth in vitro (culture density, methane). The format is cell-based, Methanobrevibacter ruminantium. The protocol:
M1 was grown in medium RM02 in anaerobic culture tubes (16 mm internal diameter, 18 mm outer diameter, 150 mm long; Bellco Glass, Vineland, N.J., USA), essentially as described by Balch and Wolfe, 1976. The mineral salts base of RM02 contained (per liter of medium): 1.4 g of KH2PO4, 0.6 g of (NH4)2SO4, 1.5 g of KCl, 1 ml trace element solution […] et al., 1983), 1 ml of selenite/tungstate solution ([…] and […], 1984) and 4 drops of 0.1% (w/v) resazurin solution. This solution was mixed and then boiled under O2-free 100% CO2, before being cooled in an ice bath while it was bubbled with 100% CO2. Once the medium was cool, 4.2 g of NaHCO3 and 0.5 g of L-cysteine.HCl.H2O was added per liter. […] In the experiments testing the effects of PeiR addition, the culture densities were mathematically normalised to an OD600 of 0.1 at the time the additions were made, and all other readings corrected by the same ratio. […] Methane was measured by gas chromatography, taking a 0.3 ml sample from the culture headspace, at the pressure in the culture tube, and injecting it into an Aerograph 660 (Varian Associates, Palo Alto, Calif., USA) fitted with a Porapak Q 80/100 mesh column (Waters Corporation, Milford, Mass., USA) and a thermal conductivity detector operated at 100° C. […]

For assay [2], the system named is Mbb. ruminantium A1Ao ATP synthase. Briefly: ATP hydrolysis by A1Ao ATP synthase with inhibitors (inorganic phosphate assay). To be noted: in high concentrations. Format: biochemical, Methanobrevibacter ruminantium. An excerpt:
Two enzyme preparations were studied. Purified ATP synthase from BL21 and recombinant enzyme expressed in E. coli DK8 membranes. Purified […] ATP synthase was examined for ATPase activity using the inorganic phosphate assay. […] TBT is a well characterized Fo and Ao channel inhibitor of ATP synthases. To examine the coupling ion used by the Mbb. ruminantium […] ATP synthase, the effect of amiloride, a known Na^+-coupled V-type ATPase and Na^+ channel inhibitor was also examined. […] E. coli DK8 (Δatp) inverted membranes containing the recombinant […]-ATPase were used to determine the effects of the inhibitors TBT (200 μM) and DCCD (250 μM) at different pH values. ATPase activity was measured in presence of 130 mM Na^+ (FIG. 30A) and in absence of Na^+ (FIG. 30B). After preincubation with the inhibitor for 20 min at room temperature ([…]), the reaction was started at 39° C. by addition of Na2-ATP or Tris-ATP to a final concentration of 2.5 mM. 0.5 mg inverted membrane vesicles was used in each end-point assay. […] FIGS. 30A and 30B). […] FIG. 30C). Amiloride inhibition of ATP hydrolysis of the Mbb. ruminantium […] ATP synthase was evaluated next. […] FIG. 30D). […] FIG. 31A). Amiloride inhibition of ATP hydrolysis of purified recombinant Mbb. ruminantium […] ATP synthase was further tested in DK8 and native membranes. […] FIG. 31B).

The target in assay [3] is 3-hydroxy-3-methylglutaryl-CoA reductase (HMGR) (Methanobrevibacter ruminantium, UniProt D3E332). Description: HMGR activity assay measuring oxidation of NADPH. Particulars: for Km: substrate of HMGR, assays at 37° C, pH 6.5. The format is biochemical.
Assay [4] deals with M. ruminantium M1. Briefly: Stimulation of growth of M1 by alcohols. Format: cell-based, Methanobrevibacter ruminantium. To be noted: for culture density (OD600 nm): M1 grown on H2, compared to H2 alone. The protocol: M1 was grown in medium RM02 in anaerobic culture tubes (16 mm internal diameter, 18 mm outer diameter, 150 mm long; Bellco Glass, Vineland, N.J., USA), essentially as described by Balch and Wolfe, 1976. The mineral salts base of RM02 contained (per liter of medium): 1.4 g of KH2PO4, 0.6 g of (NH4)2SO4, 1.5 g of KCl, 1 ml trace element solution […] et al., 1983), 1 ml of selenite/tungstate solution ([…] and […], 1984) and 4 drops of 0.1% (w/v) resazurin solution. This solution was mixed and then boiled under O2-free 100% CO2, before being cooled in an ice bath while it was bubbled with 100% CO2. Once the medium was cool, 4.2 g of NaHCO3 and 0.5 g of L-cysteine.HCl.H2O was added per liter. The medium was dispensed into the culture tubes while being gassed with 100% CO2, at 9.5 ml of medium per tube, and the tubes sealed with blue butyl septum stoppers and aluminium seals (Bellco), with a headspace of 100% CO2. These tubes were sterilised by autoclaving for 20 min at 121° C. Before use, the tubes were stored in the dark for at least 24 h. Sodium acetate (20 mM final conc.), sodium formate (60 mM final conc.), coenzyme M (10 μM final conc.), and vitamin-supplemented clarified rumen fluid were added to sterile media, before inoculation with 0.5 ml of an actively growing culture of M. ruminantium, then gassed with H2 plus CO2 (4:1) to 180 kPa overpressure. In some experiments, the formate was omitted, and alcohols were added, as noted in the experimental descriptions accompanying the results. The culture tubes were incubated on their sides, at 39° C. in the dark, on a platform shaken at 200 rpm. Growth of M1 was followed by measuring the culture density at 600 nm by inserting the tubes directly into an Ultrospec 1100 pro UV/Vis spectrophotometer (Amersham Biosciences, Little Chalfont, Buckinghamshire, UK). […] In the experiments testing the effects of PeiR addition, the culture densities were mathematically normalised to an OD600 of 0.1 at the time the additions were made, and all other readings corrected by the same ratio. This was done to remove the effect of lack of absolute synchronicity between cultures, a common phenomenon when culturing methanogens. This normalisation was not done for experiments testing the utilisation of alcohols. Methane was measured by gas chromatography, taking a 0.3 ml sample from the culture headspace, at the pressure in the culture tube, and injecting it into an Aerograph 660 (Varian Associates, Palo Alto, Calif., USA) fitted with a Porapak Q 80/100 mesh column (Waters Corporation, Milford, Mass., USA) and a thermal conductivity detector operated at 100° C. The column was operated at room temperature with N2 as the carrier gas at 12 cm^3/min.

Regarding `ClC(Cl)Cl` [Chloroform], in the assay with M. ruminantium M1 [1] (0.1 ml added to 10 ml culture at mid-exponential phase), the methane yield entry is on record as “similarly reduced methane yield”. Besides, the culture density result in the assay on M. ruminantium M1 [1] (0.1 ml added to 10 ml culture, compared with PeiR) is reported as “decrease in culture density was less”.
`C(=NC1CCCCC1)=NC1CCCCC1` [DCCD]: the “ATP hydrolysis activity, sensitivity to inhibitor” value in assay [2] is “sensitive”.
Turning to `CC(C)(CO[P@@](=O)(O)O[P@@](=O)(O)OC[C@H]1O[C@@H](n2cnc3c(N)ncnc32)[C@H](O)[C@@H]1OP(=O)(O)O)[C@@H](O)C(=O)NCCC(=O)NCCSC(=O)C[C@@](C)(O)CC(=O)O` [HMG-CoA], the Km in assay [3] was 12.4 ± 1.83 µM.
As to `NC(=O)C1=CN([C@@H]2O[C@H](COP(=O)(O)OP(=O)(O)OC[C@H]3O[C@@H](n4cnc5c(N)ncnc54)[C@H](OP(=O)(O)O)[C@@H]3O)[C@@H](O)[C@H]2O)C=CC1` [NADPH], the Km in assay [3] worked out at 165 ± 35 µM.
As for `CCC[CH2][Sn]([CH2]CCC)[CH2]CCC` [TBT, tributylin], the “ATP hydrolysis activity, sensitivity to inhibitor” value in assay [2] was “sensitive”.
The same measure, in the same setting: then `N=C(N)NC(=O)c1nc(Cl)c(N)nc1N` [amiloride], with “sensitive”.
Consider `CCO` [ethanol], for which, in the assay on M. ruminantium M1 [4] (20 mM, M1 grown on H2), the growth result is “some inhibition of growth”. Besides, the “culture density (OD600 nm)” value in the assay with M. ruminantium M1 [4] (5 or 10 mM) is recorded as “increase in culture density”. Besides, in the assay on M. ruminantium M1 [4] (no H2 added), the growth entry was “No growth occurred” and the methane formation result is on record as “no methane was formed”.
As to `CC(C)O` [isopropanol], the stimulation of growth result in the assay with M. ruminantium M1 [4] (5 to 20 mM, M1 grown on H2) is on record as “no stimulation”. Also, in the assay on M. ruminantium M1 [4] (no H2 added), the growth result was “No growth occurred” and the methane formation result is “no methane was formed”.
As for `CC[C@H](C)C(=O)O[C@H]1C[C@@H](C)C=C2C=C[C@H](C)[C@H](CC[C@@H]3C[C@@H](O)CC(=O)O3)[C@H]21` [lovastatin, reference compound], in assay [3], the inhibition constant Ki is 8.5 ± 1.1 µM.
Regarding `CO` [methanol], the “culture density (OD600 nm)” value in the assay on M. ruminantium M1 [4] (20 mM) is given as “increase in culture density”. In the assay with M. ruminantium M1 [4] (no H2 added), the growth result is listed as “No growth occurred” and the methane formation entry is “no methane was formed”.
In assay [3], `CCC(C)(C)C(=O)O[C@H]1C[C@@H](C)C=C2C=C[C@H](C)[C@H](CC[C@@H]3C[C@@H](O)CC(=O)O3)[C@H]21` [simvastatin, reference compound] came in with a Ki of 3.7 ± 0.65 µM.

As a reminder, the Km is the concentration of substrate that gives half-maximal velocity. For orientation: Ki means the equilibrium dissociation constant of an inhibitor or competing ligand from its target. A low value points to a stronger hold on the target.
